From US9913850B2, “Bile acids and biguanides as protease inhibitors for preserving the integrity of peptides in the gut” (AXCESS LIMITED, priority 2008, dated 2018)
One block for each compound: values may come before it.

Columns and labels:
Thrombin = target: T1, Thrombin (Bos taurus, UniProt P00735); assay: Thrombin inhibition, chromogenic substrate N-Benzoyl-Phe-Val-Arg-p-nitroanilide; type: biochemical; conditions: Examples 10, 11; thrombin from bovine plasma; bile salt from 100 mg/ml; 37° C., up to 30 minutes; FIGS. 13, 14
T1 construct: Thrombin, from bovine plasma; from tissue; host or cells: bovine plasma
Protocol: Thrombin, from bovine plasma, was dissolved in HBSS at a concentration of 0.5 mg/ml. The substrate N-Benzoyl-Phe-Val-Arg-p-nitroanilide hydrochloride was dissolved in HBSS at a concentration of 0.5 mg/ml, and sodium chenodeoxycholate was dissolved at a range of concentrations starting at 100 mg/ml. The assay was conducted in the wells of 96-well clear plastic microplates, in which 50:1 of enzyme solution and 100:1 of bile salt were mixed together, and then 50:1 of substrate was added, with mixing, at the start of the reaction, which proceeded at 37° C. for up to 30 minutes, with measurement at various intermediate time points. The progress of the enzymatic reaction was assessed by measuring the appearance of reaction product (p-nitroaniline) colorimetrically using a wavelength of 405 nm on an Anthos reader 2001 from Anthos Labtec Instruments.
Example 10 was repeated but with sodium deoxycholate instead of sodium chenodeoxycholate.

chymotrypsin = target: T2, chymotrypsin (Bos taurus, UniProt P00766); assay: Chymotrypsin inhibition, fluorogenic peptide substrates; type: biochemical, bovine
T2 construct: Chymotrypsin, from bovine plasma; from tissue
Protocol: (§1) The following Examples serve to illustrate the present invention, and should not be construed as limiting.
(§2) Trypsin, from bovine pancreas, was dissolved in Hanks Balanced Salt Solution (HBSS) at a concentration of 0.02 mg/ml. The substrate Z-L-arginine 4-methyl-7coumarinylamide was dissolved in HBSS at a concentration of 0.01 mg/ml, and sodium chenodeoxycholate was dissolved at a range of concentrations starting at 100 mg/ml. The assay was conducted in the wells of 96-well black plastic microplates, in which 20:1 of enzyme solution and 60:1 of bile salt were mixed together, and then 20:1 of substrate was added, with mixing, at the start of the reaction, which proceeded at room temperature for up to 30 minutes, with measurement at various intermediate time points.
Example 1 was repeated but with chymotrypsin as the protease (instead of trypsin) and with glutaryl-L-phenylalanine 4-methyl-7-coumarinylamide as the substrate.
Example 2 was repeated but with sodium deoxycholate instead of sodium chenodeoxycholate.
(§3) Chymotrypsin, from bovine plasma, was dissolved in HBSS at a concentration of 0.02 mg/ml. The substrate Boc-β-benzyl-Asp-Pro-Arg-7-amido-4-methylcoumarin was dissolved in HBSS at a concentration of 0.01 mg/ml, and sodium chenodeoxycholate was dissolved at 100 mg/ml. The assay was conducted in the wells of 96-well clear plastic microplates, in which 20:1 of enzyme solution and 60:1 of bile salt were mixed together, and then 20:1 of substrate was added, with mixing, at the start of the reaction, which proceeded at 37° C. for up to 30 minutes, with measurement at various intermediate time points.

Trypsin = target: T3, Trypsin (Bos taurus, UniProt P00760); assay: Trypsin inhibition, fluorogenic substrate Z-L-arginine 4-methyl-7-coumarinylamide; type: biochemical, bovine; conditions: up to 30 minutes
T3 construct: Trypsin, from bovine pancreas; from tissue; host or cells: bovine pancreas
T3 sequence (P00760 24-246): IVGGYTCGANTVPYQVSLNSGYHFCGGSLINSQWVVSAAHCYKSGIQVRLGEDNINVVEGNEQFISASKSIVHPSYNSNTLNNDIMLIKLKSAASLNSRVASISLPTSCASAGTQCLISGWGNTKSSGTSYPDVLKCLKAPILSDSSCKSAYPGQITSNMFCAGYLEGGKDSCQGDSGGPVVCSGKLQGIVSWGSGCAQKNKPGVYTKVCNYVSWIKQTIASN
Protocol: as §1, §2
Example 1 was repeated but with sodium deoxycholate instead of sodium chenodeoxycholate.
as §2, with “HBSS” for “Hanks Balanced Salt Solution (HBSS)”, “4-methyl-7-coumarinylamide” for “4-methyl-7coumarinylamide”, “ursodeoxycholate” for “chenodeoxycholate”, “50” for “100”, “100:1” for “60:1”, “37° C.” for “room temperature”
as §2, with “HBSS” for “Hanks Balanced Salt Solution (HBSS)”, “4-methyl-7-coumarinylamide” for “4-methyl-7coumarinylamide”, “glycodeoxycholate” for “chenodeoxycholate”, “100:1” for “60:1”, “37° C.” for “room temperature”
Example 5 was repeated but with sodium glycochenodeoxycholate instead of sodium ursodeoxycholate.
Example 6 was repeated but with sodium glycocholate instead of sodium glycodeoxycholate.
Example 9 was repeated but with trypsin (instead of chymotrypsin) from bovine plasma, Z-L-arginine 4-methyl-7-coumarinylamide as the substrate and metformin as the inhibitor.
as §3, with “Trypsin,” for “Chymotrypsin,”, “pancreas,” for “plasma,”, “Z-L-arginine 4-methyl-7-coumarinylamide” for “Boc-β-benzyl-Asp-Pro-Arg-7-amido-4-methylcoumarin”, “phenformin” for “sodium chenodeoxycholate”, “black” for “clear”, “100:1” for “60:1”

gut proteases = assay: Inhibition of gut proteases, general statement; type: biochemical; conditions: see FIGS. 5 and 6
[1] = Example 4, substrate glutaryl-L-phenylalanine 4-methyl-7-coumarinylamide, bile salt 25 mg/ml, FIG. 6
[2] = Example 3, bile salt 25 mg/ml, room temperature, FIG. 5
[3] = Examples 5-8, 13, trypsin from bovine pancreas, 37° C., FIGS. 7-11, 16

Inhibition of thrombin activity over time (Thrombin): Inhibition of enzyme activity
Inhibition of chymotrypsin activity over time and dose response (chymotrypsin; Example 2, substrate glutaryl-L-phenylalanine 4-methyl-7-coumarinylamide, bile salt from 100 mg/ml, FIGS. 3, 4): Inhibition of enzyme activity
Inhibition of chymotrypsin activity over time (chymotrypsin; Example 9, chymotrypsin from bovine plasma, substrate Boc-β-benzyl-Asp-Pro-Arg-7-amido-4-methylcoumarin, 100 mg/ml, 37° C., FIG. 12): Inhibition of enzyme activity
Inhibition of trypsin activity over time and dose response (Trypsin; Example 1, trypsin from bovine pancreas, bile salt from 100 mg/ml, room temperature, FIGS. 1, 2): Inhibition of enzyme activity
SMILES: C[C@H](CCC(=O)O)[C@H]1CC[C@H]2[C@@H]3[C@H](O)C[C@@H]4C[C@H](O)CC[C@]4(C)[C@H]3CC[C@]12C [chenodeoxycholate, sodium chenodeoxycholate]

Inhibition of trypsin activity over time (Trypsin; [3]): Inhibition of enzyme activity
SMILES: C[C@H](CCC(=O)NCC(=O)O)[C@H]1CC[C@H]2[C@@H]3[C@H](O)C[C@@H]4C[C@H](O)CC[C@]4(C)[C@H]3C[C@H](O)[C@]12C [glycocholate, sodium glycocholate]

Inhibition of trypsin activity over time (Trypsin; [3]): Inhibition of enzyme activity
SMILES: C[C@H](CCC(=O)O)[C@H]1CC[C@H]2[C@@H]3[C@@H](O)C[C@@H]4C[C@H](O)CC[C@]4(C)[C@H]3CC[C@]12C [ursodeoxycholate, sodium ursodeoxycholate]

More lines, now with the values behind:

SMILES: C[C@H](CCC(=O)O)[C@H]1CC[C@H]2[C@@H]3[C@H](O)C[C@@H]4C[C@H](O)CC[C@]4(C)[C@H]3C[C@H](O)[C@]12C [cholate, cholic acid]
Inhibitory effect on gut proteases (gut proteases): do not have this inhibitory effect
Inhibition of chymotrypsin activity over time (chymotrypsin; [1]): do not inhibit chymotrypsin
Inhibition of trypsin activity over time (Trypsin; [2]): do not inhibit trypsin

SMILES: C[C@H](CCC(=O)[O-])[C@H]1CC[C@H]2[C@@H]3CC[C@@H]4C[C@H](O)CC[C@]4(C)[C@H]3C[C@H](O)[C@]12C.[Na+] [deoxycholate, sodium deoxycholate]
Inhibition of thrombin activity over time (Thrombin): Inhibition of enzyme activity
Inhibition of chymotrypsin activity over time (chymotrypsin; [1]): Inhibition of enzyme activity
Inhibition of trypsin activity over time (Trypsin; [2]): Inhibition of enzyme activity

SMILES: C[C@H](CCC(=O)NCC(=O)O)[C@H]1CC[C@H]2[C@@H]3[C@H](O)C[C@@H]4C[C@H](O)CC[C@]4(C)[C@H]3CC[C@]12C [glycochenodeoxycholate, sodium glycochenodeoxycholate]
Inhibition of trypsin activity over time (Trypsin; [3]): Inhibition of enzyme activity

SMILES: C[C@H](CCC(=O)NCC(=O)[O-])[C@H]1CC[C@H]2[C@@H]3CC[C@@H]4C[C@H](O)CC[C@]4(C)[C@H]3C[C@H](O)[C@]12C.[Na+] [glycodeoxycholate, sodium glycodeoxycholate]
Inhibition of trypsin activity over time (Trypsin; [3]): Inhibition of enzyme activity

SMILES: CN(C)C(=N)N=C(N)N [metformin]
Inhibition of trypsin activity over time (Trypsin; Example 12, trypsin from bovine plasma, 37° C., FIG. 15): Inhibition of enzyme activity

SMILES: [H]/N=C(/N)N/C(=N/[H])NCCc1ccccc1 [phenformin]
Inhibition of trypsin activity over time (Trypsin; [3]): Inhibition of enzyme activity

SMILES: C[C@H](CCC(=O)NCCS(=O)(=O)O)[C@H]1CC[C@H]2[C@@H]3[C@H](O)C[C@@H]4C[C@H](O)CC[C@]4(C)[C@H]3C[C@H](O)[C@]12C [taurocholate, taurocholic acid]
Inhibitory effect on gut proteases (gut proteases): do not have this inhibitory effect
Inhibition of chymotrypsin activity over time (chymotrypsin; [1]): do not inhibit chymotrypsin
Inhibition of trypsin activity over time (Trypsin; [2]): do not inhibit trypsin

SMILES: C[C@H](CCC(=O)NCCS(=O)(=O)O)[C@H]1CC[C@H]2[C@@H]3CC[C@@H]4C[C@H](O)CC[C@]4(C)[C@H]3C[C@H](O)[C@]12C [taurodeoxycholate, taurodeoxycholic acid]
Inhibitory effect on gut proteases (gut proteases): do not have this inhibitory effect
Inhibition of trypsin activity over time (Trypsin; [2]): do not inhibit trypsin
